Results as given in patent publication US20070128217A1 (priority 2003, published 2007).

Assays:
[1] = system: antibodies in sera from SARS patients (sera 1a, 1b, 2, 6, 37, 62, London, SARS-yellow, SARS-green); format: binding, human; design: Binding of serum 6 to linear peptides of protein X1 of SARS-CoV Urbani / Binding of serum 37 to linear peptides of protein X1 of SARS-CoV Urbani / Binding of serum 6 to looped/cyclic peptide (PEPSCAN-ELISA) / Binding of serum 37 to looped/cyclic peptide (PEPSCAN-ELISA) / Binding of serum 37 to looped/cyclic peptides of protein X1 of SARS-CoV Urbani / Binding of serum 6 to linear peptides of protein X2 / Binding of serum 37 to linear peptides of protein X2 / Binding of serum 37 to looped/cyclic peptides of protein X2 of SARS-CoV Urbani / Binding of serum 6 to linear peptides of protein M of SARS-CoV Urbani / Binding of serum 37 to linear peptides of protein M of SARS-CoV Urbani / Binding of serum 6 to looped/cyclic peptides of protein M of SARS-CoV Urbani / Binding of serum 37 to looped/cyclic peptides of protein M of SARS-CoV Urbani / Binding of serum 6 to linear peptides of protein X3 of SARS-CoV Urbani / Binding of serum 37 to linear peptides of protein X3 of SARS-CoV Urbani / Binding of serum 37 to looped/cyclic peptides of protein X3 of SARS-CoV Urbani / Binding of serum 6 to linear peptides of protein X4 of SARS-CoV Urbani / Binding of serum 37 to linear peptides of protein X4 of SARS-CoV Urbani / Binding of serum 37 to looped/cyclic peptides of protein X4 of SARS-CoV Urbani / Binding of serum 6 to linear peptides of protein X5 of SARS-CoV Urbani / Binding of serum 37 to linear peptides of protein X5 of SARS-CoV Urbani / Binding of serum 37 to looped/cyclic peptides of protein X5 of SARS-CoV Urbani / Binding of serum 6 to linear peptides of protein N of SARS-CoV Urbani / Binding of serum 37 to linear peptides of protein N of SARS-CoV Urbani / Binding of serum 6 to linear peptide (PEPSCAN-ELISA) / Binding of serum 1a to looped/cyclic peptides of protein N of SARS-CoV Urbani / Binding of serum 1b to looped/cyclic peptides of protein N of SARS-CoV Urbani / Binding of serum 2 to looped/cyclic peptides of protein N of SARS-CoV Urbani / Binding of serum 6 to looped/cyclic peptides of protein N of SARS-CoV Urbani / Binding of serum 37 to looped/cyclic peptides of protein N of SARS-CoV Urbani / Binding of serum 62 to looped/cyclic peptides of protein N of SARS-CoV Urbani / Binding of serum London to looped/cyclic peptides of protein N of SARS-CoV Urbani / Binding of serum SARS-green to looped/cyclic peptides of protein N of SARS-CoV Urbani: unit not given here
[2] = system: control sera (pooled serum of ten healthy LUMC hospital workers; commercial negative donor pooled serum from the Dutch bloodbank); format: binding, human; design: Binding of Control serum LUMC to linear peptides / Binding of Control serum Blood-bank to linear peptides / Binding of Control serum LUMC to looped peptides / Binding of Control Serum Blood-Bank to Looped peptides / Binding of Control serum LUMC to linear peptides of the protein M of SARS-CoV Urbani / Binding of Control serum Blood-bank to linear peptides of the protein M of SARS-CoV Urbani / Binding of Control serum LUMC to looped peptides of the protein M of SARS-CoV Urbani / Binding of Control Serum Blood-Bank to Looped peptides of the protein M of SARS-CoV Urbani: unit not given here
[3] = system: rabbit serum obtained by immunizing a rabbit with the SARS-CoV strain Frankfurt 1; format: binding; design: Binding of a rabbit serum to linear peptides / Binding of a rabbit serum to looped peptides / Rabbit serum linear peptides / Rabbit serum looped peptides / Binding of a rabbit serum to linear peptides of protein N of SARS-CoV Urbani (Rabbit serum linear peptides) / Binding of a rabbit serum to looped/cyclic peptides of protein N of SARS-CoV Urbani (Rabbit serum looped peptides): unit not given here

With ALQELLIQQWIQFMM the “Binding of serum 1a to linear peptides of protein X2” value [1] was 0.7, the “Binding of serum 1a to looped/cyclic peptides of protein X2 of SARS-CoV Urbani” value [1] was 0.7 and the “Binding of serum 1b to linear peptides of protein X2” value [1] was 0.6. The “Binding of serum 1b to looped/cyclic peptides of protein X2 of SARS-CoV Urbani” value [1] was 0.5, the “Binding of serum 2 to linear peptides of protein X2” value [1] was 0.4 and the “Binding of serum 2 to looped/cyclic peptides of protein X2 of SARS-CoV Urbani” value [1] was 0.4. The “Binding of serum 6 to linear peptides of protein X2” value [1] was 0.4, the “Binding of serum 6 to looped/cyclic peptides of protein X2 of SARS-CoV Urbani” value [1] was 0.2 and the “Binding of serum 37 to linear peptides of protein X2” value [1] was 0.6. The “Binding of serum 37 to looped/cyclic peptides of protein X2 of SARS-CoV Urbani” value [1] was 0.5, the “Binding of serum 62 to linear peptides of protein X2” value [1] was 0.6 and the “Binding of serum 62 to looped/cyclic peptides of protein X2 of SARS-CoV Urbani” value [1] was 0.7. For the same sequence, the “Binding of serum London to linear peptides of protein X2” value [1] was 0.5, the “Binding of serum London to looped/cyclic peptides of protein X2 of SARS-CoV Urbani” value [1] was 0.2 and the “Binding of serum SARS-green to linear peptides of protein X2” value [1] was 0.7. The “Binding of serum SARS-green to looped/cyclic peptides of protein X2 of SARS-CoV Urbani” value [1] was 0.4, the “Binding of serum SARS-yellow to linear peptides of protein X2” value [1] was 0.4 and the “Binding of serum SARS-yellow to looped/cyclic peptides of protein X2 of SARS-CoV Urbani” value [1] was 0.5. The “Binding of Control Serum Blood-Bank to Looped peptides” value [2] was 0.7, the “Binding of Control serum Blood-bank to linear peptides” value [2] was 0.5 and the “Binding of Control serum LUMC to linear peptides” value [2] was 0.4. For the same sequence, the “Binding of Control serum LUMC to looped peptides” value [2] was 0.7, the “Binding of a rabbit serum to linear peptides” value [3] was 0.2 and the “Binding of a rabbit serum to looped peptides” value [3] was 0.4.
With ALVFLILCFTIKRKT the “Binding of serum 1a to linear peptides of protein X4 of SARS-CoV Urbani” value [1] was 0.7, the “Binding of serum 1a to looped/cyclic peptides of protein X4 of SARS-CoV Urbani” value [1] was 0.8 and the “Binding of serum 1b to linear peptides of protein X4 of SARS-CoV Urbani” value [1] was 0.6. The “Binding of serum 1b to looped/cyclic peptides of protein X4 of SARS-CoV Urbani” value [1] was 0.5, the “Binding of serum 2 to linear peptides of protein X4 of SARS-CoV Urbani” value [1] was 0.7 and the “Binding of serum 2 to looped/cyclic peptides of protein X4 of SARS-CoV Urbani” value [1] was 0.8. For the same sequence, the “Binding of serum 6 to linear peptides of protein X4 of SARS-CoV Urbani” value [1] was 0.7, the “Binding of serum 6 to looped/cyclic peptides of protein X4 of SARS-CoV Urbani” value [1] was 0.9 and the “Binding of serum 37 to linear peptides of protein X4 of SARS-CoV Urbani” value [1] was 0.7. For the same sequence, the “Binding of serum 37 to looped/cyclic peptides of protein X4 of SARS-CoV Urbani” value [1] was 0.6, the “Binding of serum 62 to linear peptides of protein X4 of SARS-CoV Urbani” value [1] was 0.8 and the “Binding of serum 62 to looped/cyclic peptides of protein X4 of SARS-CoV Urbani” value [1] was 0.7. The “Binding of serum London to linear peptides of protein X4 of SARS-CoV Urbani” value [1] was 0.8, the “Binding of serum London to looped/cyclic peptides of protein X4 of SARS-CoV Urbani” value [1] was 1.1 and the “Binding of serum SARS-green to linear peptides of protein X4 of SARS-CoV Urbani” value [1] was 0.7. The “Binding of serum SARS-green to looped/cyclic peptides of protein X4 of SARS-CoV Urbani” value [1] was 0.5, the “Binding of serum SARS-yellow to linear peptides of protein X4 of SARS-CoV Urbani” value [1] was 0.4 and the “Binding of serum SARS-yellow to looped/cyclic peptides of protein X4 of SARS-CoV Urbani” value [1] was 0.6. For the same sequence, the “Binding of Control Serum Blood-Bank to Looped peptides” value [2] was 0.8, the “Binding of Control serum Blood-bank to linear peptides” value [2] was 0.8 and the “Binding of Control serum LUMC to linear peptides” value [2] was 0.6. The “Binding of Control serum LUMC to looped peptides” value [2] was 0.7, the “Rabbit serum linear peptides” value [3] was 0.6 and the “Rabbit serum looped peptides” value [3] was 0.6.
